From patent US9193729B2, “Inhibiting transient receptor potential ion channel TRPA1” (Cubist Pharmaceuticals, Inc., priority 2011, dated 2015)

Tests used:
hTRPV1 = hTRPV1 (Homo sapiens, UniProt Q8NER1); test: Patch clamp selectivity, hTRPV1; type: cell-based; details: hTRPV1 vs TRPA1
Description: Data for TRPA1 inhibition and the selectivity of TRPA1 inhibition was obtained by this method for the compound of Formula (Ia) and included in Table 1 and Table 2. All currents were recorded in whole-cell configuration using EPC-9 and EPC-10 amplifiers and Patchmaster software (HEKA). […] The standard pipette solution consisted of 140 mM CsAsp, 10 mM EGTA, 10 mM HEPES, 2.27 mM MgCl2, 1.91 mM CaCl2, 4 mM MgATP, and 0.1-0.3 mM Na2GTP, with pH adjusted to 7.2 with CsOH. In addition, a solution containing 145 mM CsCl, 10 mM HEPES, 10 mM EGTA and 1 mM MgCl2 (pH 7.2 adjusted with CsOH) can be used. The standard bath solution contained 150 mM NaCl, 10 mM HEPES, 10 mM glucose, 4.5 mM KCl, 1 mM EGTA, 3 mM MgCl2, with pH adjusted to 7.4 with NaOH. In some instances, 2 mM CaCl2 was added in place of EGTA and the concentration of MgCl2 was reduced to 1 mM.
Data were collected either by continuous recordings at −60 mV or by applying voltage ramps from a holding potential of 0 mV every 4 s. […] Inward and outward currents were analyzed from the ramps at −80 and 80 mV, respectively. […]
Solutions were switched using a gravity-fed continuous focal perfusion system. […] Temperatures were confirmed using a thermistor (Warner Instruments, TA-29), with temperatures at the recorded cell estimated to be within +/−2° C. of those reported. […]

[1] = test system: serum biomarkers of hepatotoxicity; test: Hepatotoxicity serum biomarker study in dogs, oral dose; type: in vivo, dog; details: dogs, 50 mg/kg PO
Description: The compound of Formula (Ia) was orally dosed to […] at dose levels of 5, 15 or 50 mg/kg using 30% Sulfobutylether β-cyclodextrin as the vehicle for assessment of safety as measured via serum chemistry biomarkers of hepatotoxicity or bile duct injury FIG. 5A, showing measurements of alanine aminotranferease [ALT], aspartate aminotranferease [AST], alkaline phosphatase [ALP] and gamma-glutamyl transferase [GGT] in the dogs at each dose level (each bar represents a measurement from 1 dog in the study). […] For example, the ALT levels were elevated up to about 60-fold in male dogs and up to about 130-fold in female beagle dogs following a single PO dose of 50 mg/kg.

hTRPV1, sequence (Q8NER1 whole entry): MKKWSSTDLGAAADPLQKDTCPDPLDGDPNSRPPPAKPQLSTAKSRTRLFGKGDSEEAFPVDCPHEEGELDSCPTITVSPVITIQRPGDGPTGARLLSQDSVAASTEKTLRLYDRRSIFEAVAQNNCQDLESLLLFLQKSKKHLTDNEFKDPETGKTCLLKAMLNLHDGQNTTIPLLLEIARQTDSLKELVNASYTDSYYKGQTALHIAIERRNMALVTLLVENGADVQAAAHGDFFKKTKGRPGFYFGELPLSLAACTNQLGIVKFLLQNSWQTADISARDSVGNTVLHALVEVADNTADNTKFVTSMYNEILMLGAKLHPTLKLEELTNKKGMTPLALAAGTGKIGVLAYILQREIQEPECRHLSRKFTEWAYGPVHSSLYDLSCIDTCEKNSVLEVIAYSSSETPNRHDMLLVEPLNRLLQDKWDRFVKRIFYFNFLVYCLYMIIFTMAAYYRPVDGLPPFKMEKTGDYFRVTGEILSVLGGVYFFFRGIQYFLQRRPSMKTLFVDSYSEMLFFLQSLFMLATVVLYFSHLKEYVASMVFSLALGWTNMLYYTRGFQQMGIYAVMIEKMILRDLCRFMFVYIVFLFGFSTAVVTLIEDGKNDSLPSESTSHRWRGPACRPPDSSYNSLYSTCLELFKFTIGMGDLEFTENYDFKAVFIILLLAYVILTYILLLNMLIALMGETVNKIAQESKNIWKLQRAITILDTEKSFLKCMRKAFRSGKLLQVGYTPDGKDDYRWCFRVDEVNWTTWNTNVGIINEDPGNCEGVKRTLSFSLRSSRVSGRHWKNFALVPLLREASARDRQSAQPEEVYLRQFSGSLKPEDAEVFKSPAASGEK

Fold Selectivity Compared to TRPA1 (hTRPV1): >100 Fold
SMILES: C[C@H]1CCCN1c1ncc(-c2cccc(NC(=O)Cn3cnc4c3c(=O)n(C)c(=O)n4C)n2)cn1 [Formula (Ia)]
serum biomarkers of hepatotoxicity (ALT, AST, ALP, GGT) [1]: did not elevate serum biomarkers of hepatotoxicity or acute phase response
